In one assay the test system is whole cord blood (WCB). The assay can be described thus: Cytokines in whole cord blood (WCB). In kind it is cell-based, human. From the text: IL-1β and IFN-Υ were not detected with either AVR-48 alone or in combination with LPS. N=[…], **p<0.05, ***p<0.005, ****p<0.001, One-way ANOVA.
The test system of assay [1] is hyperoxia-exposed BPD mouse model. Put plainly: BPD mouse model: bronchoalveolar lavage fluid (BALF) analysis. In kind it is in vivo. Particulars: vs BPD group. The text has this:
For the hyperoxia experiment, newborn pups were exposed to 100% hyperoxia (P0), along with their mothers, in cages in an airtight Plexiglas chamber (OxyCycler; Biospherix, Redfield, NY, USA) as described previously by the present inventors (Syed, Das et al., 2017, Leary, Das et al. 2019, Das, Acharya et al. 2020, relevant portions incorporated herein) for 4 consecutive days (till P4) and removed to RA on P5 to be recovered till P14, so as to emulate the human BPD condition. All pups were sacrificed on P14 for further experimental analyses. The pups without any hyperoxia exposure served as the corresponding RA (normoxia) controls.
Bronchoalveolar lavage fluid (BALF) Analysis. Pups were sacrificed on PN14, and the trachea was cannulated with a small-caliber needle by instilling PBS endotracheally at […] pressure for 15 minutes. Two volumes of 300 μL of cold 1×PBS were instilled, gently aspirated, and pooled. Samples were centrifuged at 1000×g for 10 minutes at 4° C. The supernatant was collected, and total protein was quantified using the Pierce™ BCA Protein Assay Kit (Fisher Scientific Co, Houston, TX). The total cell count was done using the TC20 cell counter (BioRad, Hercules, CA). Similar method was followed for analyzing the protein concentration in BAL fluid collected from preterm lambs.

Setting [2] is: AVR-48 alone or in combination with LPS.

The record followed here is patent publication US12440471B2, “Compositions and methods for the treatment of bronchopulmonary dysplasia (BPD) and BPD-associated pulmonary hypertension” (AyuVis Research, Inc., priority 2021, dated 2025).

Consider `CC(=O)N[C@@H]1C(Oc2ccc([N+](=O)[O-])cc2)OC(CO)C(O)C1O` (stereo partly shown) [AVR-48], for which, in the assay on whole cord blood (WCB) (setting [2]), the IFN-Υ entry is “not detected” and the IL-1β result was “not detected”. The IL-10 increase with whole cord blood (WCB) (AVR-48 alone, 10 μM) is ~1.5 fold. Besides, the IL-10 result in the assay on whole cord blood (WCB) (LPS+AVR-48, 10 μM) is listed as “increased”. In addition, in the assay with whole cord blood (WCB) (alone or in combination with LPS), the TNF-α level entry is listed as “significantly decreased”. Besides, in assay [1] (10 mg/kg IP), the “total protein content in BALF” value is “decreased”. In assay [1] (10 mg/kg), the “total inflammatory cells in BALF” value is “significantly decreased”.
